Assay results as given in publication PMC9138151, “Bioactive Phytochemicals of Citrus reticulata Seeds—An Example of Waste Product Rich in Healthy Skin Promoting Agents” (Antioxidants, 2022).

Key:
injured skin = settings: cited from earlier work
cutaneous wound healing = tested on: cutaneous wound healing; set-up: method as in PMID 20193736; settings: cited from earlier work
[1] = tested on: tissue transglutaminase-2, TGF-1, and vascular endothelial growth factor; set-up: method as in PMID 20590611; settings: sham OVX rats; cited from earlier work
wound healing = tested on: wound healing; set-up: method as in PMID 28989011; settings: cited from earlier work
Xanthine oxidase = Xanthine oxidase (Homo sapiens, UniProt P47989); test: In vitro assay of xanthine oxidase activity; type: biochemical; settings: for IC50: ± SD, triplicate
Protocol: Xanthine oxidase (XO) inhibitory potential was carried out according to the previously described method. The color produced because of hydrogen peroxide release during the process of oxidation of XO was measured at 570 nm using the plate reader EPOCH™ “MICROPLATE READER (BIOTEK)”. Forty-four microliters of xanthine oxidase buffer were mixed with 2 µL of xanthine substrate solution and 2 µL of XO. […] was applied as a positive control. This experiment was performed in triplicate.

Tyrosinase = Tyrosinase (Agaricus bisporus, UniProt C7FF04); test: In vitro assay of tyrosinase activity (DOPAchrome); type: biochemical
Protocol: The tyrosinase inhibitory activity was measured from the following equation: inhibitory activity (%) = (1 − A/B) × 100, (9) where A and B are the absorbance of the mixture in presence or absence of test flavonoid, respectively. Every experiment was done in triplicate.

[2] = tested on: incisional and excisional wounds; settings: topical application; diabetic and non-diabetic rats; cited from earlier work

Chain of Xanthine oxidase (P47989 whole entry, species assumed): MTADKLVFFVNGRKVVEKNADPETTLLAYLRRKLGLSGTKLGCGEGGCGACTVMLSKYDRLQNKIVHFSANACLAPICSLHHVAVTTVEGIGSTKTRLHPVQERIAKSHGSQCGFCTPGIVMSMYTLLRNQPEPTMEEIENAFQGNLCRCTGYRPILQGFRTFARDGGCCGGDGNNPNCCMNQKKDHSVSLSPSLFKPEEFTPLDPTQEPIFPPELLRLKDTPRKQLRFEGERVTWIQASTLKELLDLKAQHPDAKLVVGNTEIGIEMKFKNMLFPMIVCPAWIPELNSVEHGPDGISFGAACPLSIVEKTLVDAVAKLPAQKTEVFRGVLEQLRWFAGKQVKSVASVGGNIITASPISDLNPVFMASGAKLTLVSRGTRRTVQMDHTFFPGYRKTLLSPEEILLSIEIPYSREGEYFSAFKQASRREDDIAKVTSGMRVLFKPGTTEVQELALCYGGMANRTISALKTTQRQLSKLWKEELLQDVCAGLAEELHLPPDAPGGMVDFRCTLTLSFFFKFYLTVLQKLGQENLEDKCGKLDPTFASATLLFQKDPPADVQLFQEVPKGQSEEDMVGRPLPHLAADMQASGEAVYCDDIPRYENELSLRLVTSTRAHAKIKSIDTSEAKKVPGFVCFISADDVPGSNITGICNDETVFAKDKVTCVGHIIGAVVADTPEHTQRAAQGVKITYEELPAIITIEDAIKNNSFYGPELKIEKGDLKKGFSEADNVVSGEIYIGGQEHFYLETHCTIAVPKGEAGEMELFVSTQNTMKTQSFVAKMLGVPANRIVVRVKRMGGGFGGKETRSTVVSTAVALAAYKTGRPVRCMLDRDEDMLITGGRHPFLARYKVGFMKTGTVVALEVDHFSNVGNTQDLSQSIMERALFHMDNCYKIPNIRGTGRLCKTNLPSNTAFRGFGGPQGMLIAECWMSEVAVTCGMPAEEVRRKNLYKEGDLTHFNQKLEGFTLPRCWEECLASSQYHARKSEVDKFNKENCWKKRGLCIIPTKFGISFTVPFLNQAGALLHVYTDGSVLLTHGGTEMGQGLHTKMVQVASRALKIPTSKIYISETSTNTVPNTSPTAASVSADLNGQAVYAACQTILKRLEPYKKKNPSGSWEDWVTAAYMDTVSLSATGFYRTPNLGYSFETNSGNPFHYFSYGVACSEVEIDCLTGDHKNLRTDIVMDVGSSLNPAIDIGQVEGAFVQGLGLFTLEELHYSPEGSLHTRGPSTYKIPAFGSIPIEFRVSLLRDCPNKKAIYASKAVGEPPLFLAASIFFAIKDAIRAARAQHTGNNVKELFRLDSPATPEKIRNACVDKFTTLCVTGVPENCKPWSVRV
Chain of Tyrosinase (C7FF04 1-392): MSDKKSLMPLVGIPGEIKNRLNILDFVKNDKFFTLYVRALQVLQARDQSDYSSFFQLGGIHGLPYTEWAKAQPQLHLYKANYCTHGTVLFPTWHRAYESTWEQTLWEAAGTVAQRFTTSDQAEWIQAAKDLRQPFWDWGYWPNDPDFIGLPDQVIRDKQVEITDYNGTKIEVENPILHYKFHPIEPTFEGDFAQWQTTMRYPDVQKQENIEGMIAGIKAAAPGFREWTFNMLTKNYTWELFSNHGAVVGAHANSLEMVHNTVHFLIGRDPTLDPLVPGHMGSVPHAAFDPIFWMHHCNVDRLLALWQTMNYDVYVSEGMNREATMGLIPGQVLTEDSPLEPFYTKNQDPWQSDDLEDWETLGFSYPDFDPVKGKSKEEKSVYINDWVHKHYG

For COc1ccc([C@@H]2CC(=O)c3c(O)cc(O[C@@H]4O[C@H](CO[C@@H]5O[C@@H](C)[C@H](O)[C@@H](O)[C@H]5O)[C@@H](O)[C@H](O)[C@H]4O)cc3O2)cc1O [Hesperidin], the “healing of injured skin” value (injured skin) is listed as “sufficient healing benefits on injured skin”.
In the case of O=c1c(-c2ccc(O)cc2)coc2cc(O)cc(O)c12 [Genistein], the wound healing (cutaneous wound healing) is given as “accelerated wound healing” and the “effect on tissue transglutaminase-2, TGF-1 and vascular endothelial growth factor” value [1] is given as “reduced tissue transglutaminase-2, TGF-1, and vascular endothelial growth factor”.
In the case of O=c1c(-c2ccc(O)cc2)c(O)oc2cc(O)cc(O)c12 [Compound 4, 2-hydroxygenistein], the wound healing (wound healing) is given as “promote wound healing”.
For O=c1c(O)c(-c2ccc(O)cc2)oc2cc(O[C@@H]3O[C@H](CO)[C@@H](O)[C@H](O)[C@H]3O)cc(O)c12 [Compound 3, kaempferol-7-O-β-D-glucopyranoside], the IC50 (Xanthine oxidase) was 6.39 ± 0.36 µM and the “activity against tyrosinase (in words)” value (Tyrosinase) was “inactive or weakly active”.
For O=c1c(O)c(-c2ccc(O)cc2)oc2cc(O)cc(O)c12 [Compound 1, kaempferol], the wound healing effect [2] is listed as “healing effects”.
In the case of O=c1c(O)c(-c2ccc(O[C@@H]3O[C@H](CO)[C@@H](O)[C@H](O)[C@H]3O)cc2)oc2cc(O)cc(O)c12 [Compound 2, kaempferol-4′-O-β-D-glucopyranoside], the “activity against xanthine oxidase (in words)” value (Xanthine oxidase) is reported as “weak or inactivity”, the IC50 (Xanthine oxidase) is reported as 73.7 ± 2.33 µM and the “activity against tyrosinase (in words)” value (Tyrosinase) is reported as “inactive or weakly active”.
Work on N[C@@H](Cn1ccc(=O)c(O)c1)C(=O)O [L-mimosine, reference compound] yielded an IC50 (Xanthine oxidase) of 3.63 ± 0.18 µM.
In the case of COc1ccc([C@@H]2CC(=O)c3c(O)cc(O)cc3O2)cc1O [Compound 5, hesperetin], the “activity against xanthine oxidase (in words)” value (Xanthine oxidase) is reported as “weak or inactivity” and the IC50 (Xanthine oxidase) is reported as > 100 µM.
